From patent US10662203B2, “Pyrido[2,3-b]indole compounds for the treatment and prophylaxis of bacterial infection” (Hoffmann-La Roche Inc., priority 2017, dated 2020)
Converted amounts (≈) assume the structure as drawn.

What was measured:
S. aureus (ATCC29213) = assay: 50% growth inhibitory concentration (IC50) determination assay; assay type: cell-based; settings: Staphylococcus aureus, Iso-Sensitest broth, 0.098 = detection limit
Outline: (§1)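 Read-out is optical density at λ=600 nm, taken every 20 minutes across a 16 h time course. Bacteria at ~5×10^5 CFU/mL in Iso-Sensitest broth are exposed to two-fold dilutions of compound (50 to 0.097 μM final) at 35±2° C.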

A. baumannii (ATCC17978) = assay: as above; assay type: cell-based; settings: Iso-Sensitest broth, 0.098 = detection limit
Outline: as §1

[1] = test system: K. pneumoniae (ATCC10031); assay: as above; assay type: cell-based; settings: Klebsiella pneumoniae, Iso-Sensitest broth, 0.098 = detection limit
Outline: as §1

[2] = Lyophilisation solubility assay (LYSA); assay type: physicochemical; settings: 0.05 M phosphate buffer, HPLC-UV; for solubility thermodynamic: phosphate buffer, pH 6.5, aqueous buffer, thermodynamic from solid
Description: Lyophilisation Solubility Assay (LYSA):
The solubility of compounds of present invention was assessed by LYSA assay. Samples were prepared in duplicate from 10 mM DMSO stock solutions (20 μL) diluted in 30 μL pure DMSO. After evaporation of DMSO with a centrifugal vacuum evaporator, the residue was dissolved in 0.05 M phosphate buffer (150 μL, pH 6.5), which was stirred for one hour and shook for two hours. After one night, the solution was filtered using a microtiter filter plate. Then the filtrate and its 1/10 dilution were analyzed by HPLC-UV.

[3] = Acinetobacter baumannii, ATCC17978, A. baumannii ATCC17978

Row | Compound | IC50 (S. aureus (ATCC29213)) [µM] | IC50 (A. baumannii (ATCC17978); [3]) [µM] | IC50 [1] [µM] | solubility thermodynamic [2] [µg/mL] | IC50 (A. baumannii (ATCC17978); A. baumannii ATCC17978) [µM] | Lysa ([2]; pH 6.5) [µg/mL]
1 | CNc1cc(F)c(F)c2c1[nH]c1ncc(-c3cnc4c(c3)c(=O)c(C(=O)O)cn4C)c(N3CCC4(F)CN(C)CC34)c12 (centres unmarked) [Example 1.120] | < 0.098 | 0.169 | < 0.098 | 37 (≈ 64.1 µM) | – | –
2 | CNc1cc(F)c(F)c2c1[nH]c1ncc(-c3cnc4c(c3)c(=O)c(C(=O)O)cn4C)c(N3CC4CCCN(C)C4C3)c12 (centres unmarked) [Example 1.232] | < 0.098 | 0.049 | < 0.098 | 23 (≈ 40.1 µM) | – | –
3 | CNc1cc(F)cc2c1[nH]c1ncc(-c3cnc4c(c3)c(=O)c(C(=O)O)cn4C)c(N3CC4[C@H](CCN4C)C3)c12 (some centres unmarked) [Example 1.209] | < 0.098 | 0.076 | < 0.098 | 63 (≈ 116 µM) | – | –
4 | CNc1cc(F)cc2c1[nH]c1ncc(-c3cnc4c(c3)c(=O)c(C(=O)O)cn4NC)c(N3C[C@H]4CCN(C)[C@H]4C3)c12 [Example 3.17A] | < 0.098 | 0.087 | < 0.098 | 118 (≈ 212 µM) | – | –
5 | CNc1cc(F)cc2c1[nH]c1ncc(-c3cnc4c(c3)c(=O)c(C(=O)O)cn4NC)c(N3C[C@H]4OCCN(C)[C@H]4C3)c12 [Example 3.23A] | < 0.098 | 0.865 | < 0.098 | 49 (≈ 85.6 µM) | – | –
6 | CNc1cc(F)c(F)c2c1[nH]c1ncc(-c3cnc4c(c3)c(=O)c(C(=O)O)cn4C)c(N3C[C@H](OC)[C@@H](N(C)C)C3)c12 [Example 1.170] | < 0.098 | – | < 0.098 | – | 0.292 | 119
7 | CCN1CCCC1Cn1cc(C(=O)O)c(=O)c2cc(-c3cnc4[nH]c5c(NC)cc(F)c(F)c5c4c3N(C)C)cnc21 (centres unmarked) [Example 1.04] | < 0.098 | 0.935 | 0.101 | 32 (≈ 55.6 µM) | – | –
8 | CNc1cc(Cl)c(F)c2c1[nH]c1ncc(-c3cnc4c(c3)c(=O)c(C(=O)O)cn4NC)c(N3CC[C@H]4CN(C)CC43)c12 (some centres unmarked) [Example 1.266] | < 0.098 | 0.066 | < 0.098 | 241 (≈ 408 µM) | – | –
9 | CNc1cc(F)cc2c1[nH]c1ncc(-c3cnc4c(c3)c(=O)c(C(=O)O)cn4NC)c(N3C[C@@H]4CCN(C)[C@@H]4C3)c12 [Example 3.17B] | < 0.098 | 0.075 | < 0.098 | 125 (≈ 225 µM) | – | –
10 | CCNc1cc(C(F)(F)F)cc2c1[nH]c1ncc(-c3cnc4c(c3)c(=O)c(C(=O)O)cn4NC)c(N3CC[C@H]4CN(C)CC43)c12 (some centres unmarked) [Example 1.123] | < 0.098 | 0.696 | < 0.098 | 48 (≈ 77.3 µM) | – | –
11 | CNc1cc(F)c(F)c2c1[nH]c1ncc(-c3cnc4c(c3)c(=O)c(C(=O)O)cn4NC)c(N3CCC(F)(CN(C)C)C3)c12 (centres unmarked) [Example 1.93] | < 0.098 | 0.094 | < 0.098 | 105 (≈ 177 µM) | – | –
12 | CNc1cc(F)c(F)c2c1[nH]c1ncc(-c3cnc4c(c3)c(=O)c(C(=O)O)cn4NC)c(N3CCC4C3CCCN4C)c12 (centres unmarked) [Example 1.247] | 0.217 | 0.344 | < 0.098 | 516 (≈ 877 µM) | – | –
13 | CNc1cc(F)c(F)c2c1[nH]c1ncc(-c3cnc4c(c3)c(=O)c(C(=O)O)cn4C)c(N3CC[C@H]4CN(CCO)CC43)c12 (some centres unmarked) [Example 1.205] | < 0.098 | 0.143 | < 0.098 | 192 (≈ 326 µM) | – | –
14 | CNc1cc(F)cc2c1[nH]c1ncc(-c3cnc4c(c3)c(=O)c(C(=O)O)cn4C)c(N3CC[C@@H]4CCN(C)[C@@H]4C3)c12 [Example 3.18B] | 0.133 | 0.275 | < 0.098 | 338 (≈ 608 µM) | – | –
15 | CCNn1cc(C(=O)O)c(=O)c2cc(-c3cnc4[nH]c5c(NC)cc(F)cc5c4c3N3CC[C@H]4CN(C)CC43)cnc21 (some centres unmarked) [Example 1.290] | < 0.098 | 0.148 | < 0.098 | 247 (≈ 433 µM) | – | –
16 | CNc1cc(F)c(F)c2c1[nH]c1ncc(-c3cnc4c(c3)c(=O)c(C(=O)O)cn4C)c(N3CC[C@@H]4C3CCN4C)c12 (some centres unmarked) [Example 1.245] | < 0.098 | 0.293 | < 0.098 | 542 (≈ 969 µM) | – | –
17 | CNc1cc(F)c(F)c2c1[nH]c1ncc(-c3cnc4c(c3)c(=O)c(C(=O)O)cn4C)c(N3CCC4(CF)CN(C)CC34)c12 (centres unmarked) [Example 1.124] | < 0.098 | 0.074 | < 0.098 | 151 (≈ 255 µM) | – | –
18 | CNc1cc(F)c(F)c2c1[nH]c1ncc(-c3cnc4c(c3)c(=O)c(C(=O)O)cn4C)c(N3CCC(CN(C)C)CC3)c12 [Example 1.183] | < 0.098 | 0.103 | < 0.098 | 96 (≈ 167 µM) | – | –
19 | CNc1cc(F)cc2c1[nH]c1ncc(-c3cnc4c(c3)c(=O)c(C(=O)O)cn4C3CCNC3)c(N3CCCC3)c12 (centres unmarked) [Example 1.259] | < 0.098 | 0.533 | < 0.098 | 17 (≈ 31.4 µM) | – | –
20 | CNc1cc(F)c(F)c2c1[nH]c1ncc(-c3cnc4c(c3)c(=O)c(C(=O)O)cn4C)c(N3CCCC(N(C)CCOC)C3)c12 (centres unmarked) [Example 1.197] | < 0.098 | 0.245 | < 0.098 | 407 (≈ 672 µM) | – | –
21 | CNc1cc(F)c(F)c2c1[nH]c1ncc(-c3cnc4c(c3)c(=O)c(C(=O)O)cn4NC)c(N3C[C@@H]4CCN(C)[C@@H]4C3)c12 [Example 3.07B] | 0.122 | 0.155 | < 0.098 | 33 (≈ 57.4 µM) | – | –
22 | CNc1cc(F)cc2c1[nH]c1ncc(-c3cnc4c(c3)c(=O)c(C(=O)O)cn4C)c(N3C[C@H](OC)[C@@H](N(C)C)C3)c12 [Example 1.171] | < 0.098 | 0.445 | < 0.098 | 46 (≈ 82.2 µM) | – | –
23 | CCN1CC2[C@@H](CCN2c2c(-c3cnc4c(c3)c(=O)c(C(=O)O)cn4C)cnc3[nH]c4c(NC)cc(F)c(F)c4c23)C1 (some centres unmarked) [Example 1.279] | < 0.098 | 0.215 | < 0.098 | 151 (≈ 263 µM) | – | –
24 | CNc1cc(F)cc2c1[nH]c1ncc(-c3cnc4c(c3)c(=O)c(C(=O)O)cn4C)c(N3C[C@H](C)[C@@H](N(C)C)C3)c12 [Example 1.152] | < 0.098 | 0.305 | < 0.098 | 49 (≈ 90.1 µM) | – | –
25 | CNc1cc(F)cc2c1[nH]c1ncc(-c3cnc4c(c3)c(=O)c(C(=O)O)cn4NC)c(N3C[C@@H]4OCCN(C)[C@@H]4C3)c12 [Example 3.23B] | < 0.098 | 0.789 | < 0.098 | 58 (≈ 101 µM) | – | –
26 | CNc1cc(F)cc2c1[nH]c1ncc(-c3cnc4c(c3)c(=O)c(C(=O)O)cn4NC)c(N3CC4[C@H](CCCN4C)C3)c12 (some centres unmarked) [Example 1.111] | < 0.098 | 0.115 | < 0.098 | 112 (≈ 196 µM) | – | –
27 | CNc1cc(F)c(F)c2c1[nH]c1ncc(-c3cnc4c(c3)c(=O)c(C(=O)O)cn4C(C)CO)c(N3CC[C@H]4CN(C)CC43)c12 (some centres unmarked) [Example 1.206] | < 0.098 | 0.277 | < 0.098 | 273 (≈ 452 µM) | – | –
28 | CNc1cc(F)c(F)c2c1[nH]c1ncc(-c3cnc4c(c3)c(=O)c(C(=O)O)cn4C)c(N3CC4(CC4)C[C@H]3CN(C)C)c12 [Example 1.157] | < 0.098 | 0.299 | < 0.098 | 42 (≈ 71.5 µM) | – | –
29 | CNc1cc(F)c(F)c2c1[nH]c1ncc(-c3cnc4c(c3)c(=O)c(C(=O)O)cn4NC)c(N3CC4[C@@H](C3)OCCN4C)c12 (some centres unmarked) [Example 1.242] | < 0.098 | 0.189 | < 0.098 | 24 (≈ 40.6 µM) | – | –
